{
  "source": "ChEMBL document CHEMBL1136402",
  "about": "“Characterization of HERG potassium channel inhibition using CoMSiA 3D QSAR and homology modeling approaches” (Bioorg Med Chem Lett, 2003)",
  "note": "pIC50: −log10 of the molar value.",
  "data": [
    {"molecular_target": "Voltage-gated inwardly rectifying potassium channel KCNH2 (Homo sapiens, UniProt Q12809)", "sequence (Q12809 whole entry)": "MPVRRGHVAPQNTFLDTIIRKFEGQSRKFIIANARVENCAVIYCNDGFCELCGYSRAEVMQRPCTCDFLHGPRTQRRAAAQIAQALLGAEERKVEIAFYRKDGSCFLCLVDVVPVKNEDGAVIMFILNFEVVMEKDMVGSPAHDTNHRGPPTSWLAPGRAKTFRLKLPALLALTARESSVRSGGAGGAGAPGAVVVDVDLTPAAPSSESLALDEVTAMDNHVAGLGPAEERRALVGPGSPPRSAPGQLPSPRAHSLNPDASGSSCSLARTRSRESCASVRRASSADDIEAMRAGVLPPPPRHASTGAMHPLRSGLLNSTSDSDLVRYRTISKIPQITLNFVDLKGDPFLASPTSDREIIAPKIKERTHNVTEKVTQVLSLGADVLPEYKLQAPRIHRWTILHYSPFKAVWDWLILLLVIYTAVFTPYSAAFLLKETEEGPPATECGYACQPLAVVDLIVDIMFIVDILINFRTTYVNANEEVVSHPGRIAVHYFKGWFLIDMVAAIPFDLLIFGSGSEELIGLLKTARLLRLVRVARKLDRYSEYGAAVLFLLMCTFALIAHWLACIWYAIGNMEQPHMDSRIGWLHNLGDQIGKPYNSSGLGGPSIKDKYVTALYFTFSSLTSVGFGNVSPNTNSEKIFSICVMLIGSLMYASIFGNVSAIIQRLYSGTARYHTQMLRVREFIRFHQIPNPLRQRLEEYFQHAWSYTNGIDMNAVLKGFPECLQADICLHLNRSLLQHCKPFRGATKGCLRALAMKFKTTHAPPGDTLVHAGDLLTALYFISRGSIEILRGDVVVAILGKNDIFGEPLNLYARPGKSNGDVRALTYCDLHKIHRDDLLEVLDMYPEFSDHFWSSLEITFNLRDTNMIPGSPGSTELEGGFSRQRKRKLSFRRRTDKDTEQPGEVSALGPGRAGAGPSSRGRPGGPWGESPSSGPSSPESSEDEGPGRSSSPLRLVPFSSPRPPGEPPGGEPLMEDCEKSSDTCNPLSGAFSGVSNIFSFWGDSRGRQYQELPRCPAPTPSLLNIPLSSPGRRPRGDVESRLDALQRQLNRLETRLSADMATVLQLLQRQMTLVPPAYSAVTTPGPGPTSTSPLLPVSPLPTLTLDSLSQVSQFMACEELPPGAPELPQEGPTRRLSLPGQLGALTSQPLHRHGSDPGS", "assay": "Inhibition of K+ channel activity in CHO cells expressing HERG Kv11.1", "values": [
      {"smiles": "O=C1NCCN1CCN1CC=C(c2cn(-c3ccc(F)cc3)c3ccc(Cl)cc23)CC1", "pIC50": 8.00},
      {"smiles": "O=C1NCCN1CCN1CCC(c2cn(-c3ccc(F)cc3)c3ccccc23)CC1", "pIC50": 8.15},
      {"smiles": "Fc1ccc(-n2cc(C3CCNCC3)c3cc(Cl)ccc32)cc1", "pIC50": 6.69},
      {"smiles": "Fc1ccc(-n2cc(C3CCN(CCN4CCN=C4S)CC3)c3ccccc32)cc1", "pIC50": 8.21},
      {"smiles": "CC(C)(C)c1ccc2c(ccn2-c2ccc(F)cc2)c1", "pIC50": "< 5.00"},
      {"smiles": "CCc1cn(-c2ccc(F)cc2)c2ccc(Cl)cc12", "pIC50": 5.46},
      {"smiles": "CC(=O)c1cn(-c2ccc(F)cc2)c2ccc(Cl)cc12", "pIC50": "< 5.00"},
      {"smiles": "CCCc1cn(-c2ccc(F)cc2)c2ccc(Cl)cc12", "pIC50": 4.59},
      {"smiles": "CC(O)c1cn(-c2ccc(F)cc2)c2ccc(Cl)cc12", "note": "(stereo not given)", "pIC50": 5.34},
      {"smiles": "CC(C)c1cn(-c2ccc(F)cc2)c2ccc(Cl)cc12", "pIC50": "< 5.00"},
      {"smiles": "CCC(=O)c1cn(-c2ccc(F)cc2)c2ccc(Cl)cc12", "pIC50": 5.71},
      {"smiles": "O=C1NCCN1CCN1CCC(c2cn(C3CCCCC3)c3ccc(Cl)cc23)CC1", "pIC50": 6.86},
      {"smiles": "CCC(O)c1cn(-c2ccc(F)cc2)c2ccc(Cl)cc12", "note": "(stereo not given)", "pIC50": 5.66},
      {"smiles": "CCC(O)(CC)c1cn(-c2ccc(F)cc2)c2ccc(Cl)cc12", "pIC50": 4.80},
      {"smiles": "O=C1NCCN1CCN1CCC(C2CN(c3ccc(F)cc3)c3ccccc32)CC1", "note": "(stereo not given)", "pIC50": 7.63}
    ]}
  ]
}
